Active and inactive are the calls of the source. No cut-off for these calls is given here.
Columns and labels:
[1] = system: HCC827; assay: Antiproliferative activity against human HCC827 cells assessed as decrease in cell survival measured after 72 hrs by CCK-8 assay; type: functional, cell-based; details: HCC827, 72 h
[2] = system: E3 ubiquitin-protein ligase RNF149/Epidermal growth factor receptor (Homo sapiens), P00533+Q8NC42 [UNDEFINED MUTATION]; assay: SiHyT-mediated degrader activity at RNF149/EGFR mutant in human HCC827 cells assessed as induction of EGFR degradation at 1 uM cells incubated in serum-free media for 8 hrs followed by incubation with compound for 24 hrs by western blot analysis; type: cell-based
Sequence of E3 ubiquitin-protein ligase RNF149/Epidermal growth factor receptor (Homo sapiens), P00533+Q8NC42 [UNDEFINED MUTATION] (P00533 whole entry, looked up, change not shown): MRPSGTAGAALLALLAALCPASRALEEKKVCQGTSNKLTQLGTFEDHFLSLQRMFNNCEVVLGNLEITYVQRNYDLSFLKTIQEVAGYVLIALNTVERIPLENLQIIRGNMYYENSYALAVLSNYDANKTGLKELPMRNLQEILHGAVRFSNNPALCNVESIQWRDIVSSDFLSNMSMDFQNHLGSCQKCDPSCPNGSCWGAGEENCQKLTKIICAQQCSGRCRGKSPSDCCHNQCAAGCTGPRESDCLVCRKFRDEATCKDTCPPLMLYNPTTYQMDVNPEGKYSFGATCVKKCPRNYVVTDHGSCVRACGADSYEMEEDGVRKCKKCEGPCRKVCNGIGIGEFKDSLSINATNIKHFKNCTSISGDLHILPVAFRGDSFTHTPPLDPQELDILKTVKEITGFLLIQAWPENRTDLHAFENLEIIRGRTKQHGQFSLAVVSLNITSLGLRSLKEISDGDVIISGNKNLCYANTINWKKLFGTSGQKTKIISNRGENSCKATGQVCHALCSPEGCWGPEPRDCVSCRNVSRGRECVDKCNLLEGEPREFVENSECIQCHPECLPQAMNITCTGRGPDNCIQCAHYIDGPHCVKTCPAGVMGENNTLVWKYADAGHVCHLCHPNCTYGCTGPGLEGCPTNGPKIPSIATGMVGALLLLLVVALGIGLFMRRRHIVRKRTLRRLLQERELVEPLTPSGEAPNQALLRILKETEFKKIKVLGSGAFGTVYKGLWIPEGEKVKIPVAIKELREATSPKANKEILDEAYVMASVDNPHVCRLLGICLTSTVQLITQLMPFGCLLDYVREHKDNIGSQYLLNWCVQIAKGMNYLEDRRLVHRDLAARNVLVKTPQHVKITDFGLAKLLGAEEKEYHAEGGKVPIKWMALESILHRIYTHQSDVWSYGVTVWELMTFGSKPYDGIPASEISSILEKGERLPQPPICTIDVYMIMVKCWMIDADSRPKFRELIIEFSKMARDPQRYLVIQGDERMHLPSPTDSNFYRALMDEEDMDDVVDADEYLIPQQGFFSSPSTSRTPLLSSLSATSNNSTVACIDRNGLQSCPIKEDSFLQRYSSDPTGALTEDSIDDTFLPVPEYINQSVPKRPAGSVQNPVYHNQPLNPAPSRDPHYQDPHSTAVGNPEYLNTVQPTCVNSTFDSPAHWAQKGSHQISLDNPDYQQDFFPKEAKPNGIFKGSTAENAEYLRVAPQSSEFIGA
Sequence of E3 ubiquitin-protein ligase RNF149/Epidermal growth factor receptor (Homo sapiens), P00533+Q8NC42 [UNDEFINED MUTATION] (Q8NC42 whole entry, looked up, change not shown): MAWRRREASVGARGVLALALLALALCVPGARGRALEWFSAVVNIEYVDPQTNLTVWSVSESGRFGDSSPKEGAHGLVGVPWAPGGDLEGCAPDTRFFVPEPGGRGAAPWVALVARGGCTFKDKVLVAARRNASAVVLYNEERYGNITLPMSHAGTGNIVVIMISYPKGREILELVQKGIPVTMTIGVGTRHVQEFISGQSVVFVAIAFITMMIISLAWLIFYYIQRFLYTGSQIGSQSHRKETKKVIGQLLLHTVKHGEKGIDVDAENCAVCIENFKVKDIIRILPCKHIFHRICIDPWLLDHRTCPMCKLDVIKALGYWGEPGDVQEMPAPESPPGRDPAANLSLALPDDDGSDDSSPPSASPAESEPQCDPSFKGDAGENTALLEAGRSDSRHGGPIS

[3] = system: E3 ubiquitin-protein ligase RNF149/Epidermal growth factor receptor (Homo sapiens), P00533+Q8NC42 [UNDEFINED MUTATION]; assay: (§1) SiHyT-mediated degrader activity at RNF149/EGFR mutant in human HCC827 cells assessed as induction of EGFR degradation cells incubated in serum-free media for 8 hrs followed by incubation with compound for 24 hrs by western blot analysis; type: cell-based
[4] = biological target: E3 ubiquitin-protein ligase RNF149/Epidermal growth factor receptor (Homo sapiens, UniProt P00533+Q8NC42); assay: as §1; type: cell-based
Sequence of E3 ubiquitin-protein ligase RNF149/Epidermal growth factor receptor (P00533 whole entry, looked up, change not shown): as the sequence (P00533 whole entry, looked up, change not shown) above
Sequence of E3 ubiquitin-protein ligase RNF149/Epidermal growth factor receptor (Q8NC42 whole entry, looked up, change not shown): as the sequence (Q8NC42 whole entry, looked up, change not shown) above

[5] = system: PC-9; assay: SiHyT-mediated degrader activity at RNF149/EGFR mutant in human PC-9 cells assessed as induction of EGFR degradation by measuring decrease in EGFR level at 2 uM measured after 24 hrs by western blot analysis; type: cell-based
[6] = system: E3 ubiquitin-protein ligase RNF149/Epidermal growth factor receptor (Homo sapiens), P00533+Q8NC42 [UNDEFINED MUTATION]; assay: SiHyT-mediated degrader activity at RNF149/EGFR mutant in human HCC827 cells assessed as induction of EGFR degradation by measuring decrease in EGFR level at 1 uM measured after 9 hrs by western blot analysis; type: cell-based
[7] = system: PC-9; assay: SiHyT-mediated degrader activity at RNF149/EGFR mutant in human PC-9 cells assessed as induction of EGFR degradation by measuring EGFR expression level at 2 uM incubated for 24 hrs followed by drug wash-out and measured after 24 hrs by western blot analysis; type: cell-based
[8] = system: E3 ubiquitin-protein ligase RNF149/Epidermal growth factor receptor (Homo sapiens), P00533+Q8NC42 [UNDEFINED MUTATION]; assay: SiHyT-mediated degrader activity at RNF149/EGFR mutant in human HCC827 cells assessed as induction of EGFR degradation by measuring EGFR expression level at 1 uM incubated for 24 hrs followed by drug wash-out and measured after 24 hrs by western blot analysis; type: cell-based
[9] = system: E3 ubiquitin-protein ligase RNF149/Epidermal growth factor receptor (Homo sapiens), P00533+Q8NC42 [UNDEFINED MUTATION]; assay: SiHyT-mediated degrader activity at RNF149/EGFR mutant in human HCC827 cells assessed as induction of EGFR degradation by measuring decrease in EGFR expression level at 1 uM pretreated with lysosome inhibitor, 3-MA for 4 hrs followed by incubation with compound for 24 hrs by western blot analysis; type: cell-based
[10] = system: E3 ubiquitin-protein ligase RNF149/Epidermal growth factor receptor (Homo sapiens), P00533+Q8NC42 [UNDEFINED MUTATION]; assay: SiHyT-mediated degrader activity at RNF149/EGFR mutant in human HCC827 cells assessed as induction of EGFR degradation by measuring decrease in EGFR expression level at 1 uM pretreated with E1 ligase inhibitor, PYR41 for 4 hrs followed by incubation with compound for 24 hrs by western blot analysis; type: cell-based
[11] = system: PC-9; assay: SiHyT-mediated degrader activity at RNF149/EGFR mutant in human PC-9 cells assessed as induction of EGFR degradation by measuring decrease in half-time of EGFR at 2 uM incubated for 6 to 24 hrs in presence of protein synthesis inhibitor, cycloheximide by western blot analysis; type: cell-based; details: time 6-24 hrs
[12] = system: HCC827; assay: Inhibition of colony formation in human HCC827 cells assessed as inhibition of malignant clonal growth at 0.5 to 1 uM measured after 7 days by crystal violet staining based analysis; type: functional, cell-based; details: dose 0.5-1 µM, time 7.0 day
[13] = system: PC-9; assay: Induction of cell cycle arrest in human PC-9 cells assessed as increase in cell accumulation at G1 phase at 0.5 to 2 uM incubated for 24 hrs by propidium iodide staining based flow cytometry; type: functional; details: dose 0.5-2 µM
[14] = system: HCC827; assay: Inhibition of cell invasion in human HCC827 cells at 0.25 to 2 uM incubated for 12 hrs by Transwell assay; type: functional, cell-based; details: dose 0.25-2 µM
[15] = system: HCC827; assay: Induction of apoptosis in human HCC827 cells at 0.5 to 2 uM incubated for 48 hrs by AnnexinV-FITC/PI staining based flow cytometry; type: functional, cell-based; details: dose 0.5-2 µM
[16] = Half life of the compound in human liver microsomes at 1 uM in presence of NADPH by LC-MS/MS analysis; type: ADME, Microsome
[17] = Intrinsic clearance of the compound in human liver microsomes at 1 uM in presence of NADPH by LC-MS/MS analysis; type: ADME, Microsome; details: read-out: CLH
[18] = Half life in ICR mouse at 1 mg/kg, iv by LC-MS/MS analysis; type: ADME, organism-based; details: in vivo
[19] = Cmax in ICR mouse at 1 mg/kg, iv by LC-MS/MS analysis; type: ADME, organism-based; details: in vivo
[20] = MRT in ICR mouse at 1 mg/kg, iv by LC-MS/MS analysis; type: ADME, organism-based; details: in vivo
[21] = Half life in ICR mouse at 10 mg/kg, po by LC-MS/MS analysis; type: ADME, organism-based; details: in vivo
[22] = Cmax in ICR mouse at 10 mg/kg, po by LC-MS/MS analysis; type: ADME, organism-based; details: in vivo
[23] = MRT in ICR mouse at 10 mg/kg, po by LC-MS/MS analysis; type: ADME, organism-based; details: in vivo
[24] = system: Mus musculus; assay: In vivo induction of EGFR mutant degradation in tumor of mouse xenografted with human PC-9 cells assessed as decrease in EGFR expression at 10 mg/kg, po measured after 6 to 48 hrs by immunoblot analysis; type: functional, organism-based; details: time 6-48 hrs
[25] = Toxicity in mouse assessed as pathological changes in liver administered for 14 days by Hematoxylin-Eosin staining based analysis; type: tissue-based; details: in vivo, 336 h, time 14 day
[26] = system: PC-9; assay: Induction of interaction between RNF149/EGFR mutant in human PC-9 cells assessed as disruption of EGFR mutant/HSP70 complex formation at 2 uM measured after 6 hrs by co-immunoprecipitation analysis; type: cell-based
[27] = system: PC-9; assay: Induction of interaction between RNF149/EGFR mutant in human PC-9 cells assessed as disruption of EGFR mutant/HSP90 complex formation at 2 uM measured after 6 hrs by co-immunoprecipitation analysis; type: cell-based
[28] = system: PC-9; assay: SiHyT-mediated degrader activity at RNF149/EGFR mutant in human PC-9 cells assessed as induction of EGFR degradation at 1 uM in presence of HSP90 inhibitor, geldanamycin by western blot analysis; type: cell-based
[29] = system: PC-9; assay: Induction of interaction between RNF149/EGFR mutant in human PC-9 cells by pull-down based LC-MS/MS analysis; type: cell-based
[30] = biological target: Epidermal growth factor receptor (Homo sapiens) (UniProt P00533); assay: Induction of EGFR mutant degradation in human PC-9 cells transfected with RNF149 shRNA at 1 uM by western blot analysis; type: cell-based
Sequence of Epidermal growth factor receptor (Homo sapiens) (P00533 whole entry): as the sequence (P00533 whole entry, looked up, change not shown) above

[31] = system: PC-9; assay: Binding affinity to RNF149/EGFR mutant in human PC-9 cells at 2 uM incubated for 4 hrs by CETSA analysis; type: cell-based
[32] = system: HEK-293T; assay: Cytotoxicity against human HEK293T cells assessed as reduction in cell viability; type: toxicity, cell-based
[33] = system: MCF-10A; assay: Cytotoxicity against human MCF-10A cells assessed as reduction in cell viability; type: toxicity, cell-based
[34] = system: HUVEC; assay: Cytotoxicity against human HUVEC cells assessed as reduction in cell viability; type: toxicity, cell-based

Activity [2]: 87.2%
Activity [3]: Dose-dependent-effect
DC50 [4]: 0.75 µM
Activity [6]: Active
Activity [8]: inactive
Activity [9]: Active
Activity [10]: inactive
half-life at 1 µM [16]: > 1 h
CLint scaled at 1 µM [17]: 0.558 L/h/kg
half-life [18]: 2.18 h
Cmax [19]: 2.21 µg/mL
MRT [20]: 2.72 h
half-life [21]: 1.29 h
Cmax [22]: 0.683 µg/mL
MRT [23]: 2.57 h
Activity [30]: inactive
SMILES: COc1cc2ncnc(Nc3ccc(F)c(Cl)c3)c2cc1OCCn1cc(CCCO[Si](c2ccccc2)(c2ccccc2)C(C)(C)C)nn1
IC50 [1]: 0.07 µM
Activity [5]: Active
Activity [7]: inactive
Activity [11]: Active
inhibition [12]: Active
Activity [13]: Dose-dependent-effect
inhibition [14]: Active
Activity [15]: Dose-dependent-effect
Activity [24]: Active
Activity [25]: Non-toxic
Activity [26]: inactive
Activity [27]: Active
Activity [28]: Active
Activity [29]: Active
Activity [31]: Active
Activity [32]: Toxic
Activity [33]: Toxic
Activity [34]: Toxic

Reference: ChEMBL document CHEMBL6074674, “Development of Novel Silicon-Based Hydrophobic Tags (SiHyT) for Targeted Proteins Degradation” (J Med Chem, 2024)
